The target in this assay is T1, human M1 receptor (hCHRM1) (Homo sapiens, UniProt P11229).
T1 construct: expressed in transfected cells
T1 sequence (P11229 1-460): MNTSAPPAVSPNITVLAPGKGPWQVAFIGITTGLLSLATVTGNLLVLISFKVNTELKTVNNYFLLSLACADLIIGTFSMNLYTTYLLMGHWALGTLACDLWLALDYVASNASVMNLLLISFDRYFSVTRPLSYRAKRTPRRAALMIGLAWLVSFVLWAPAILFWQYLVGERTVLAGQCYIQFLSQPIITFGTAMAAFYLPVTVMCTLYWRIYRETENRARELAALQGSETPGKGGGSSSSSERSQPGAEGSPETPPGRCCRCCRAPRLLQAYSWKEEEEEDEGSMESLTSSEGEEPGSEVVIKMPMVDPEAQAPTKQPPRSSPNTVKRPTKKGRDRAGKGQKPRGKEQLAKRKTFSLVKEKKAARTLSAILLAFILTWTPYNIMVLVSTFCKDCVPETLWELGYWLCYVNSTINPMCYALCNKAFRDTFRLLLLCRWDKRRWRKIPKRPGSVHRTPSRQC
As to the kind of experiment: Measurement of M1 receptor positive allosteric modulator (M1PAM) activity (calcium fluorescence, Fluo-4). In kind it is cell-based. To be noted: for EC50: inflection point of concentration-dependent curve, CHO-K1 cells stably expressing hCHRM1, in presence of acetylcholine at EC20 (final 0.8-1.0 nM), read-out: IP value; for activity (%) at 10 μM: test compound 10 μM with acetylcholine at EC20, 100% = 1 μM acetylcholine, 0% = DMSO, CHO-K1 cells expressing hCHRM1. As for the experimental part:
Measurement of M1 Receptor Positive Allosteric Modulator (M1PAM) Activity
The activity of a test compound in the presence of acetylcholine at EC20 concentration (final concentration 0.8-1.0 nM), which affords an action corresponding to about 20% of the maximum activity, was measured as PAM activity. The method is as follows. CHO-K1 cells stably expressing a human M1 receptor (hCHRM1) were plated on a 384-well black clear bottom plate (BD Falcon) at 5,000 cells/well, and cultured in an incubator at 37° C., 5% CO2 for 1 day. The medium in the cell plate was removed, and assay buffer A containing a calcium indicator (Recording medium (DOJINDO LABORATORIES), 0.1% BSA (Wako Pure Chemical Industries, Ltd.), 2.5 μg/mL Fluo-4 AM (DOJINDO LABORATORIES), 0.08% Pluronic F127 (DOJINDO LABORATORIES) and 1.25 mM probenecid (DOJINDO LABORATORIES) were added at 30 μL/well. The cells were left standing in the incubator at 37° C., 5% CO2 for 30 min, and further left standing at room temperature for 30 min. A test compound prepared by diluting with assay buffer B (HBSS (Invitrogen), 20 mM HEPES (Invitrogen), 0.1% BSA) containing 3.2-4.0 nM acetylcholine was added at 10 μL/well, and the fluorescence was measured by FDSS/pcell (Hamamatsu Photonics K.K.) for 1 min every for 1 second. With the definition that the amount of change in the fluorescence on addition of acetylcholine (final concentration 1 μM) is 100% and that on addition of DMSO instead of a test compound is 0%, the activity (%) of the test compound was calculated, and the inflection point in the concentration-dependent curve of the test compound was calculated as IP values.

Consider `COc1c(C(=O)N[C@H]2COCC[C@@H]2O)cc(Cc2ccc(-c3ccn(C)n3)nc2)c(C)c1C` [Example 31, 1,5-anhydro-2,4-dideoxy-2-((2-methoxy-3,4-dimethyl-5-((6-(1-methyl-1H-pyrazol-3-yl)pyridin-3-yl)methyl)benzoyl)amino)-L-threo-pentitol], for which the EC50 was 67 nM and the “activity (%) at 10 μM” value turned out to be 97%.
The like results for `COc1c(C(=O)N[C@H]2CCCC[C@@H]2O)cc(Cc2ccc(-c3ccn(C)n3)nc2)c(C)c1C` [Example 21, N-((1S,2S)-2-hydroxycyclohexyl)-2-methoxy-3,4-dimethyl-5-((6-(1-methyl-1H-pyrazol-3-yl)pyridin-3-yl)methyl)benzamide] were, in that order, 10 nM and 96%.
In the case of `Cc1c(Cc2ccc(-c3cn(C)nn3)cc2)cc(C(=O)N[C@H]2CCCC[C@@H]2O)c(OC(C)C)c1C` [Example 16, N-((1S,2S)-2-hydroxycyclohexyl)-2-isopropoxy-3,4-dimethyl-5-(4-(1-methyl-1H-1,2,3-triazol-4-yl)benzyl)benzamide], the EC50 is 30 nM and the “activity (%) at 10 μM” value stood at 99%.
The like results for `COc1c(C(=O)N[C@H]2COCC[C@@H]2O)cc(Cc2ccc(-c3cn(C)nc3C)nc2)c(C)c1C` [Example 28, 1,5-anhydro-2,4-dideoxy-2-((5-((6-(1,3-dimethyl-1H-pyrazol-4-yl)pyridin-3-yl)methyl)-2-methoxy-3,4-dimethylbenzoyl)amino)-L-threo-pentitol] were, in that order, 20 nM and 100%.
The like results for `COc1c(C(=O)N[C@H]2CCCC[C@@H]2O)cc(Cc2ccc(-c3cn(C)nn3)cc2)c(C)c1C` (single isomer, unassigned) [Example 10, N-(trans-2-hydroxycyclohexyl)-2-methoxy-3,4-dimethyl-5-(4-(1-methyl-1H-1,2,3-triazol-4-yl)benzyl)benzamide] were, in that order, 4.8 nM and 106%.
The like results for `Cc1c(Cc2ccc(-c3cn(C)nn3)cc2)cc(C(=O)N[C@H]2CCCC[C@@H]2O)c(OC(F)F)c1C` [Example 18, 2-(difluoromethoxy)-N-((1S,2S)-2-hydroxycyclohexyl)-3,4-dimethyl-5-(4-(1-methyl-1H-1,2,3-triazol-4-yl)benzyl)benzamide] were, in that order, 27 nM and 97%.
As for `CCOc1c(C(=O)N[C@H]2CCCC[C@@H]2O)cc(Cc2ccc(-c3cn(C)nn3)cc2)c(C)c1C` [Example 15, 2-ethoxy-N-((1S,2S)-2-hydroxycyclohexyl)-3,4-dimethyl-5-(4-(1-methyl-1H-1,2,3-triazol-4-yl)benzyl)benzamide], the EC50 came out at 14 nM and the “activity (%) at 10 μM” value came to 100%.
Taken in the same sequence, the figures for `Cc1c(Cc2ccc(-n3cccn3)nc2)cc(C(=O)N[C@H]2CCC[C@@H]2O)c(F)c1C` [Example 19, 2-fluoro-N-((1S,2S)-2-hydroxycyclopentyl)-3,4-dimethyl-5-((6-(1H-pyrazol-1-yl)pyridin-3-yl)methyl)benzamide] were 84 nM and 93%.
For `COc1c(C(=O)N[C@H]2COCC[C@@H]2O)cc(Cc2ccc(-c3cn(C)nn3)cc2)c(C)c1C` [Example 13, N-((3S,4S)-4-hydroxytetrahydro-2H-pyran-3-yl)-2-methoxy-3,4-dimethyl-5-(4-(1-methyl-1H-1,2,3-triazol-4-yl)benzyl)benzamide], the EC50 is 9.4 nM and the “activity (%) at 10 μM” value is 102%.
The like results for `COc1c(C(=O)N[C@H]2CCOC[C@@H]2O)cc(Cc2ccc(-c3cn(C)nn3)cc2)c(C)c1C` [Example 24, 1,5-anhydro-2,3-dideoxy-3-((2-methoxy-3,4-dimethyl-5-(4-(1-methyl-1H-1,2,3-triazol-4-yl)benzyl)benzoyl)amino)-L-threo-pentitol] were, in that order, 2.6 nM and 95%.
The like results for `COc1c(C(=O)N[C@H]2CCC[C@@H]2O)cc(Cc2ccc(-c3cn(C)nn3)cc2)c(C)c1C` (relative stereo) [Example 4, N-(trans-2-hydroxycyclopentyl)-2-methoxy-3,4-dimethyl-5-(4-(1-methyl-1H-1,2,3-triazol-4-yl)benzyl)benzamide] were, in that order, 23 nM and 108%.
Taken in the same sequence, the figures for `COc1c(C(=O)N[C@H]2COCC[C@@H]2O)cc(Cc2ccc(-n3cccn3)cc2)c(C)c1C` [Example 27, 1,5-anhydro-2,4-dideoxy-2-((2-methoxy-3,4-dimethyl-5-(4-(1H-pyrazol-1-yl)benzyl)benzoyl)amino)-L-threo-pentitol] were 39 nM and 100%.
`COc1c(C(=O)N[C@H]2COCC[C@@H]2O)cc(Cc2ccc(-c3ccn(C)n3)cc2)c(C)c1C` [Example 26, 1,5-anhydro-2,4-dideoxy-2-((2-methoxy-3,4-dimethyl-5-(4-(1-methyl-1H-pyrazol-3-yl)benzyl)benzoyl)amino)-L-threo-pentitol]: the EC50 worked out at 31 nM and the “activity (%) at 10 μM” value was 99%.
The like results for `COc1c(C(=O)NCC2CCCO2)cc(Cc2ccc(-c3cn(C)nn3)cc2)c(C)c1C` (stereo not drawn) [Example 6, 2-methoxy-3,4-dimethyl-5-(4-(1-methyl-1H-1,2,3-triazol-4-yl)benzyl)-N-(tetrahydrofuran-2-ylmethyl)benzamide] were, in that order, 23 nM and 107%.
Taken in the same sequence, the figures for `Cc1c(Cc2ccc(-n3cccn3)cc2)cc(C(=O)N[C@H]2COCC[C@@H]2O)c(F)c1C` [Example 12, 2-fluoro-N-((3S,4S)-4-hydroxytetrahydro-2H-pyran-3-yl)-3,4-dimethyl-5-(4-(1H-pyrazol-1-yl)benzyl)benzamide] were 19 nM and 103%.
The like results for `COc1c(C(=O)N[C@@H]2CCCC[C@H]2O)cc(Cc2ccc(-c3cn(C)nn3)cc2)c(C)c1C` (single isomer, unassigned) [Example 11, N-(trans-2-hydroxycyclohexyl)-2-methoxy-3,4-dimethyl-5-(4-(1-methyl-1H-1,2,3-triazol-4-yl)benzyl)benzamide] were, in that order, 37 nM and 97%.
As for `Cc1c(Cc2ccc(-n3cccn3)nc2)cc(C(=O)N[C@H]2CCCC[C@@H]2O)c(F)c1C` [Example 20, 2-fluoro-N-((1S,2S)-2-hydroxycyclohexyl)-3,4-dimethyl-5-((6-(1H-pyrazol-1-yl)pyridin-3-yl)methyl)benzamide], the EC50 is 31 nM and the “activity (%) at 10 μM” value was 97%.
The like results for `Cc1c(Cc2ccc(-c3cn(C)nn3)cc2)cc(C(=O)N[C@H]2CCCC[C@@H]2O)c(OCC2CC2)c1C` [Example 17, 2-(cyclopropylmethoxy)-N-((1S,2S)-2-hydroxycyclohexyl)-3,4-dimethyl-5-(4-(1-methyl-1H-1,2,3-triazol-4-yl)benzyl)benzamide] were, in that order, 40 nM and 99%.
The like results for `COc1c(C(=O)N[C@H]2COCC[C@@H]2O)cc(Cc2ccc(-c3cn(C)nc3C)cc2)c(C)c1C` [Example 29, 1,5-anhydro-2,4-dideoxy-2-((5-(4-(1,3-dimethyl-1H-pyrazol-4-yl)benzyl)-2-methoxy-3,4-dimethylbenzoyl)amino)-L-threo-pentitol] were, in that order, 48 nM and 97%.
The like results for `Cc1c(Cc2ccc(-c3cscn3)cc2)cc(C(=O)N[C@H]2COCC[C@@H]2O)c(F)c1C` [Example 32, 1,5-anhydro-2,4-dideoxy-2-((2-fluoro-3,4-dimethyl-5-(4-(1,3-thiazol-4-yl)benzyl)benzoyl)amino)-L-threo-pentitol] were, in that order, 16 nM and 101%.
`COc1c(C(=O)N[C@H]2CCCC[C@@H]2O)cc(Cc2ccc(-n3ccnn3)cc2)c(C)c1C` [Example 14, N-((1S,2S)-2-hydroxycyclohexyl)-2-methoxy-3,4-dimethyl-5-(4-(1H-1,2,3-triazol-1-yl)benzyl)benzamide]: the EC50 was determined as 8.6 nM and the “activity (%) at 10 μM” value was found to be 98%.

The record behind these values is patent publication US10548877B2, “Aromatic ring compound” (TAKEDA PHARMACEUTICAL COMPANY LIMITED, priority 2016, dated 2020).
